Measured values from patent US20250059162A1, “MULTI-PROTEIN DEGRADATION AGENT HAVING IMIDE SKELETON” (SUZHOU KINTOR PHARMACEUTICALS, INC., priority 2021, published 2025).

How the values were obtained:
Type in all cases: cell-based
[1] = target: T1, GSPT1 protein (Homo sapiens, UniProt P15170); test: GSPT1 protein degradation in HL60 cells (Western blot); conditions: for remaining GSPT1 protein at 0.01 µM: HL-60, compound at 10 nM, 24 h, gray value relative to Ctrl (DMSO), read-out: Remaining amount of GSPT1 protein (@10 nM/Ctrl)
T1 construct: degradation of myc and GSPT1 proteins in HL60 cells; endogenous in cells; host or cells: HL60
Experimental: (§1) HL60 cells in the exponential growth phase were digested and plated into a 6-well plate at 1×10^6 cells per well. The cell culture medium was RPMI-1640 (meilunbio, MA0215). After a day of adherent growth of the cells, the compound of the present invention was added as a test drug for culture, and proteins were extracted 24 h later (Ctrl meant adding only DMSO at the same volume).
(§2) In the 6-well plate, the culture medium RPMI-1640 (meilunbio, MA0215) was removed, and the cells were washed once with PBS, digested with trypsin, and centrifuged and collected separately into 1.5 mL centrifuge tubes. 100 μL of RIPA lysis buffer (containing 100 μM PMSF) was added to each tube, mixed thoroughly, allowed to stand on ice for 30 min and then centrifuged at 12000 rpm at 4° C. using a centrifuge for 20 min. The supernatant was used for Western blotting experiments. The sample can be stored at −80° C.
(§3) By using the BCA protein concentration determination kit (from Thermo Fisher, Cat. No. 23225), the BSA standard determination solution and the samples to be tested (the samples to be tested can be diluted and then tested) were prepared according to the table A below. Samples were added to the 96-well plate. Each well was supplemented with PBS to 20 μL, and then 200 μL of BCA working solution (prepared according to the kit) was added respectively and mixed evenly. The plate was placed at 60° C. for 10 min, and then the absorbance at 562 nm was detected. After the reading was recorded, a standard curve was plotted using concentration gradients of the standards, and the absorbance of the samples was substituted to calculate the protein concentration of the samples.
(§4) • 2.1 Protein denaturation: RIPA protein buffer (purchased from Solarbio, Cat. No. R0010) and 5× Loading Buffer (SDS, glycerin, bromophenol blue, TRIS) (purchased from Solarbio, Cat. No. P1040) were added, and the protein samples were denatured at 100° C. for 5 min. • 2.2 Sample loading and electrophoresis: 10% precast gel and the corresponding electrophoresis buffer were used. The same mass of protein sample and protein ladder (purchased from thermo, Cat. No. 26617) were loaded into each well, and electrophoresis at 200 V was performed for 30 min. • 2.3 […]: The gel was excised to remove the excess part. Transferring to PVDF membrane was performed by the wet transfer method (before use, it was necessary to activate the PVDF membrane with methanol for 1 min) at 300 mA for 2 h, during which a lot of heat was generated, and thus cooling with an ice box was required. • 2.4 Blocking: After the transferring, the PVDF membrane was placed in 5% skim milk and blocked with shaking at room temperature for 1 h. • 2.5 Incubating with primary antibody: The PVDF membrane was cut according to the molecular weight indicated on the marker and placed in c-myc (purchased from abcam, Cat. No. ab32072), or GSPT1 (purchased from abcam, Cat. No. ab234433), or CK1α (purchased from abcam, Cat. No. ab206652), or IKZF2 (purchased from proteintech, Cat. No. 13554-1-AP), and GAPDH (purchased from CST, Cat. No. #97166) primary antibodies. The antibodies were diluted with TBST buffer (a solution prepared from TRIS, KCL and NaCl and adjusted to pH 7.4 with hydrochloric acid, and Tween 20 was added) at a ratio of 1:1000, and blocked overnight on a shaker at 4° C. • 2.6 Incubating with secondary antibody: The PVDF membrane incubated with the primary antibody was washed with TBST for 3 times, each time for 10 min. After washing, the membrane was placed in the secondary antibody of the corresponding species, and incubated at room temperature in a shaker for 2 h. • 2.7 Washing membrane and exposure: After incubated with the secondary antibodies, the membrane was washed 3 times with TBST on a shaker, 10 minutes each time. […]

[2] = test system: HL60 cells; test: Anti-proliferation on HL60 cells (CellTiter-Glo, 3 days); conditions: Homo sapiens, HL-60, 72 h, 3 days incubation, CTG luminescence, IC50 by XLfit, read-out: HL60 cells Proliferation inhibitory activity
Procedure, shortened: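 Log-phase cells were plated at 20000 cells/well and treated with compound dilutions in RPMI-1640 for 3 days, with 0.1% DMSO controls. Proliferation was read by CellTiter-Glo luminescence. IC50 was fitted from the inhibition rates.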

[3] = target: T2, c-Myc protein (Homo sapiens, UniProt P01106); test: c-Myc protein degradation in HL60 cells (Western blot); conditions: for remaining activity at 0.01 µM: HL-60, compound at 10 nM, 24 h, gray value relative to Ctrl (DMSO), read-out: Remaining amount of c-Myc protein (@10 nM/Ctrl)
T2 construct: degradation of myc and GSPT1 proteins in HL60 cells; endogenous in cells; host or cells: HL60
Experimental: as §1, §2, §3, §4

T2 sequence (P01106 whole entry): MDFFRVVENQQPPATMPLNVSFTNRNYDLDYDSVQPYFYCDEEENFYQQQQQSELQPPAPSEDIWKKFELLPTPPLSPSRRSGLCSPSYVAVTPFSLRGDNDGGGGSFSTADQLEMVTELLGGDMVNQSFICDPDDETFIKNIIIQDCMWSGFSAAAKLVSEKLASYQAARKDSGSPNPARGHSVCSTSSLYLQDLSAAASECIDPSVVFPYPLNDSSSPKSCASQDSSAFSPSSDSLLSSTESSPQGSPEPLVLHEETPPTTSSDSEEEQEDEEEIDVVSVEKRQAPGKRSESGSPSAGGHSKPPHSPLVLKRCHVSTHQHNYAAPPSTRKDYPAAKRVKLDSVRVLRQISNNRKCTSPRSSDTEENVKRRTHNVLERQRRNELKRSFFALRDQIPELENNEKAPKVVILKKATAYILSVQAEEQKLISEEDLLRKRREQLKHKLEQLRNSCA
T1 sequence (P15170 whole entry): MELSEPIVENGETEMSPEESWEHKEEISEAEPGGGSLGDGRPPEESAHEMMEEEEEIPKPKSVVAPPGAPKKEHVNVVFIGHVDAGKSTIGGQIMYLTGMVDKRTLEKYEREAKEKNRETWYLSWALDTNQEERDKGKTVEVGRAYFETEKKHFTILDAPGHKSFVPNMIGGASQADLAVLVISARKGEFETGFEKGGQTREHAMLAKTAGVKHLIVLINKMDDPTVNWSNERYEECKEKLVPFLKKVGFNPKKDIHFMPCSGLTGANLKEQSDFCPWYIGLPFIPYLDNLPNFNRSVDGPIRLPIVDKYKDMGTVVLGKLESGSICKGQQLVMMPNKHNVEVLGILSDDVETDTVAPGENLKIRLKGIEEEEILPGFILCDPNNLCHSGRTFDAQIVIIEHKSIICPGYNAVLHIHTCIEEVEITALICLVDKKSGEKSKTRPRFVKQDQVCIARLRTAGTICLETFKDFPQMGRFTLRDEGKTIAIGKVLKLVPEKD

Row | SMILES | remaining GSPT1 protein at 0.01 µM [1] [%] | IC50 [2] [nM] | remaining activity at 0.01 µM [3] [%] | Degradation of GSPT1 protein in HL60 cells at 100 nM (FIG. 3, in words) [1] | Degradation of GSPT1 protein in HL60 cells at 300 nM (FIG. 2, FIG. 3, in words) [1] | Degradation of c-Myc protein in HL60 cells at 300 nM (FIG. 2, FIG. 3, in words) [3]
1 | O=C1CCC(N2Cc3cc(CNCC4CCN(c5ncc(-c6ccccc6F)cc5F)CC4)ccc3C2=O)C(=O)N1 (centres unmarked) [Compound A107] | 1 | 9.1 | 46 | – | – | –
2 | O=C1CCC(N2Cc3cc(CNCC4CCN(c5ncc(-c6cccc(C(F)(F)F)c6)cc5F)CC4)ccc3C2=O)C(=O)N1 (centres unmarked) [Compound A110] | 0 | < 0.2 | 3 | – | – | –
3 | COc1cccc(-c2cnc(N3CCC(CNCc4ccc5c(c4)CN(C4CCC(=O)NC4=O)C5=O)CC3)c(C(F)(F)F)c2)c1 (centres unmarked) [Compound A95] | 0 | < 0.2 | 0 | – | – | –
4 | O=C1CCC(N2Cc3cc(CNCC4CCN(c5cnc(-c6cccc7ccccc67)cn5)CC4)ccc3C2=O)C(=O)N1 (centres unmarked) [Compound A63] | 5 | 0.2 | 19 | – | – | –
5 | O=C1CCC(N2Cc3cc(NCCC4CCN(c5ncc(-c6cccc(Cl)c6)cc5C(F)(F)F)CC4)ccc3C2=O)C(=O)N1 (centres unmarked) [Compound A131] | – | 35.8 | – | significantly degrade GSPT1 protein | simultaneously degrade both GSPT1 and c-Myc proteins | simultaneously degrade both GSPT1 and c-Myc proteins
6 | O=C1CCC(N2Cc3cc(CNCC4CCN(c5cnc(-c6cccc(Cl)c6)cn5)CC4)ccc3C2=O)C(=O)N1 (centres unmarked) [Compound A102] | 0 | 0.5 | 0 | – | – | –
7 | O=C1CCC(N2Cc3cc(CNCC4CCN(c5ncc(-c6ccc(Cl)cc6)cc5F)CC4)ccc3C2=O)C(=O)N1 (centres unmarked) [Compound A74] | 10 | 1.1 | 104 | – | – | –
8 | O=C1CCC(N2Cc3cc(CNCC4CCN(c5ncc(-c6cccc(F)c6)cc5C(F)(F)F)CC4)ccc3C2=O)C(=O)N1 (centres unmarked) [Compound A93] | 0 | 1.6 | 12 | – | – | –
9 | O=C1CCC(N2Cc3cc(CCCC4CCN(c5ncc(-c6cccc(Cl)c6)cc5C(F)(F)F)CC4)ccc3C2=O)C(=O)N1 (centres unmarked) [Compound A134] | – | 223 | – | significantly degrade GSPT1 protein | simultaneously degrade both GSPT1 and c-Myc proteins | simultaneously degrade both GSPT1 and c-Myc proteins
10 | O=C1CCC(N2Cc3cc(CNCC4CCN(c5ncc(-c6cccc(Cl)c6)cc5F)CC4F)ccc3C2=O)C(=O)N1 (centres unmarked) [Compound A87] | 0 | 0.6 | 11 | – | – | –
11 | O=C1CCC(N2Cc3cc(CNCC4CCN(c5ncc(-c6cccc(Cl)c6)cc5C(F)(F)F)CC4)c(F)cc3C2=O)C(=O)N1 (centres unmarked) [Compound A140] | 47 | 17.1 | 95 | – | – | –
12 | O=C1CCC(N2Cc3cc(CNCC4CCN(c5ncc(-c6cccc(F)c6)cn5)CC4)ccc3C2=O)C(=O)N1 (centres unmarked) [Compound A67] | 25 | 2 | 19 | – | – | –
13 | O=C1CCC(N2Cc3cc(CNCC4CCN(c5ncc(-c6cccc7ccccc67)s5)CC4)ccc3C2=O)C(=O)N1 (centres unmarked) [Compound A61] | 4 | 0.3 | 0 | – | – | –
14 | O=C1CCC(N2Cc3cc(CNCC4CCN(c5ccc(-c6cccc(Cl)c6)nc5)CC4)ccc3C2=O)C(=O)N1 (centres unmarked) [Compound A71] | 0 | < 0.2 | 26 | – | – | –
15 | N#Cc1cc(-c2cccc(Cl)c2)cnc1N1CCC(CNCc2ccc3c(c2)CN(C2CCC(=O)NC2=O)C3=O)CC1 (centres unmarked) [Compound A98] | 3 | 1 | 157 | – | – | –
16 | COc1cc(-c2cccc(Cl)c2)cnc1N1CCC(CNCc2ccc3c(c2)CN(C2CCC(=O)NC2=O)C3=O)CC1 (centres unmarked) [Compound A77] | 2 | < 0.2 | 50 | – | – | –
17 | CC(NCc1ccc2c(c1)CN(C1CCC(=O)NC1=O)C2=O)C1CCN(c2ncc(-c3cccc(Cl)c3)cc2F)CC1 (centres unmarked) [Compound A105] | 7 | 55 | 333 | – | – | –
18 | N#Cc1cccc(-c2cnc(N3CCC(CNCc4ccc5c(c4)CN(C4CCC(=O)NC4=O)C5=O)CC3)nc2)c1 (centres unmarked) [Compound A69] | 53 | 22 | 30 | – | – | –
19 | COc1cccc(-c2cnc(N3CCC(CNCc4ccc5c(c4)CN(C4CCC(=O)NC4=O)C5=O)CC3)c(F)c2)c1 (centres unmarked) [Compound A112] | 0 | < 0.2 | 0 | – | – | –
20 | Cc1cccc(-c2cnc(N3CCC(CNCc4ccc5c(c4)CN(C4CCC(=O)NC4=O)C5=O)CC3)nc2)c1 (centres unmarked) [Compound A68] | 0 | < 0.2 | 0 | – | – | –
21 | O=C1CCC(N2Cc3cc(CNCC4CCN(c5ncc(-c6cccc(F)c6)cc5F)CC4)ccc3C2=O)C(=O)N1 (centres unmarked) [Compound A108] | 29 | < 0.2 | 2 | – | – | –
22 | O=C1CCC(N2Cc3cc(CNC(=O)C4CCN(c5ncc(-c6cccc(Cl)c6)cn5)CC4)ccc3C2=O)C(=O)N1 (centres unmarked) [Compound A65] | 14 | < 0.2 | 0 | – | – | –
23 | N#Cc1cccc(-c2cnc(N3CCC(CNCc4ccc5c(c4)CN(C4CCC(=O)NC4=O)C5=O)CC3)c(F)c2)c1 (centres unmarked) [Compound A111] | 2 | 1.3 | 6 | – | – | –
